Where “and” joins values, the source holds several entries; their conditions need not be identical. Identical values can stand only once. Toxic doses and inconclusive results are not listed. No stated cut-off is given here; in the data, active means T/C of 150% or more; inactive means T/C below 125%.
System: L1210 leukemia ip in BDF1 mice, survival T/C
Assay: NCI In Vivo Anticancer Drug Screen. Data for tumor model L1210 Leukemia (intraperitoneal) in B6D2F1 (BDF1) mice
Conditions: endpoint: mean survival time, higher = longer survival
Outline: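 Read-out is survival time, reported as the treated-group measurement over the vehicle-control measurement.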

[1] = dose: 100.0 mg/kg/injection, schedule: Q04DX003 (ip), vehicle: saline
[2] = dose: 200.0 mg/kg/injection, schedule: Q04DX003 (ip), vehicle: saline
[3] = dose: 400.0 mg/kg/injection, schedule: Q04DX003 (ip), vehicle: saline
[4] = dose: 100.0 mg/kg/injection, schedule: Q01DX009 (ip), vehicle: saline with Tween-80
[5] = dose: 75.0 mg/kg/injection, schedule: Q01DX001 (ip), vehicle: other
[6] = dose: 150.0 mg/kg/injection, schedule: Q01DX001 (ip), vehicle: other
[7] = dose: 300.0 mg/kg/injection, schedule: Q01DX001 (ip), vehicle: other
[8] = dose: 100.0 mg/kg/injection, schedule: Q04DX003 (ip), vehicle: Klucel (hydroxypropylcellulose) (HPC)
[9] = dose: 200.0 mg/kg/injection, schedule: Q04DX003 (ip), vehicle: Klucel (hydroxypropylcellulose) (HPC)
[10] = dose: 400.0 mg/kg/injection, schedule: Q04DX003 (ip), vehicle: Klucel (hydroxypropylcellulose) (HPC)
[11] = dose: 100.0 mg/kg/injection, schedule: Q01DX001 (ip), vehicle: saline
[12] = dose: 200.0 mg/kg/injection, schedule: Q01DX001 (ip), vehicle: saline
[13] = dose: 400.0 mg/kg/injection, schedule: Q01DX001 (ip), vehicle: saline
[14] = dose: 100.0 mg/kg/injection, schedule: Q04DX003 (ip), vehicle: saline with Tween-80
[15] = dose: 200.0 mg/kg/injection, schedule: Q01DX009 (ip), vehicle: saline with Tween-80
[16] = dose: 200.0 mg/kg/injection, schedule: Q04DX003 (ip), vehicle: saline with Tween-80
[17] = dose: 400.0 mg/kg/injection, schedule: Q01DX009 (ip), vehicle: saline with Tween-80
[18] = dose: 400.0 mg/kg/injection, schedule: Q04DX003 (ip), vehicle: saline with Tween-80
[19] = dose: 50.0 mg/kg/injection, schedule: Q01DX001 (ip), vehicle: saline

Measured: T/C

Clc1ccc(Cl)c(-c2csc(Nc3cccnc3)n2)c1
inactive: [1] 92 % of control | [2] 94 % of control | [3] 97 % of control

Cc1ccc(C(=O)N/N=C/c2ccccc2Cl)cc1
inactive: dose: 100.0 mg/kg/injection, schedule: Q04DX002 (ip), vehicle: Klucel (hydroxypropylcellulose) (HPC) 101 % of control | dose: 200.0 mg/kg/injection, schedule: Q04DX002 (ip), vehicle: Klucel (hydroxypropylcellulose) (HPC) 93 % of control | dose: 400.0 mg/kg/injection, schedule: Q04DX002 (ip), vehicle: Klucel (hydroxypropylcellulose) (HPC) 104 % of control

Cc1c(CCO)sc[n+]1Cc1ccccc1
inactive: dose: 100.0 mg/kg/injection, schedule: Q04DX002 (ip), vehicle: saline 93 % of control | dose: 200.0 mg/kg/injection, schedule: Q04DX002 (ip), vehicle: saline 100 % of control

Cc1ccc(N)c(Br)c1
inactive: dose: 50.0 mg/kg/injection, schedule: Q01DX009 (ip), vehicle: saline with Tween-80 99 % of control | [4] 97 % of control

CCn1c2ccccc2c2cc(C=O)ccc21
inactive: dose: 25.0 mg/kg/injection, schedule: Q01DX009 (ip), vehicle: other 95 % of control | dose: 50.0 mg/kg/injection, schedule: Q01DX009 (ip), vehicle: other 98 % of control and 106 % of control | dose: 100.0 mg/kg/injection, schedule: Q01DX009 (ip), vehicle: other 88 % of control | dose: 200.0 mg/kg/injection, schedule: Q01DX009 (ip), vehicle: other 94 % of control

COC(=O)c1cn[nH]c1N=Nc1ccc(N(CCCl)CCCl)cc1
inactive: [5] 109 % of control | [6] 124 % of control | [7] 119 % of control

Brc1nnnn1-c1ccccc1
inactive: dose: 100.0 mg/kg/injection, schedule: Q01DX009 (ip), vehicle: Klucel (hydroxypropylcellulose) (HPC) 99 % of control | [8] 97 % of control | dose: 200.0 mg/kg/injection, schedule: Q01DX009 (ip), vehicle: Klucel (hydroxypropylcellulose) (HPC) 98 % of control | [9] 108 % of control | dose: 400.0 mg/kg/injection, schedule: Q01DX009 (ip), vehicle: Klucel (hydroxypropylcellulose) (HPC) 96 % of control | [10] 94 % of control

CC(C)CNC(=O)Cc1ccc(N(CCCl)CCCl)cc1
inactive: [8] 108 % of control | [9] 108 % of control | [10] 112 % of control

CC(C)(CCN(CC(=O)O)CC(=O)O)[N+](=O)[O-]
inactive: [11] 112 % of control | [12] 96 % of control | [13] 102 % of control

CN1C(=O)C(Br)C(Br)c2ccccc21 (stereo not drawn)
inactive: dose: 100.0 mg/kg/injection, schedule: Q01DX001 (ip), vehicle: other 107 % of control | dose: 200.0 mg/kg/injection, schedule: Q01DX001 (ip), vehicle: other 102 % of control

CCN1C(=O)C(CC)(Cc2ccccc2)C(=O)NC1=S (stereo not drawn)
inactive: dose: 75.0 mg/kg/injection, schedule: Q01DX001 (ip), vehicle: alkali diluted with saline 103 % of control | [5] 108 % of control | dose: 150.0 mg/kg/injection, schedule: Q01DX001 (ip), vehicle: alkali diluted with saline 98 % of control | [6] 105 % of control | dose: 300.0 mg/kg/injection, schedule: Q01DX001 (ip), vehicle: alkali diluted with saline 108 % of control | [7] 103 % of control

CC(C)(C)P1(=O)OCC(c2ccccc2)CO1 (stereo not drawn)
inactive: dose: 100.0 mg/kg/injection, schedule: Q04DX003 (ip), vehicle: other 101 % of control | dose: 200.0 mg/kg/injection, schedule: Q04DX003 (ip), vehicle: other 107 % of control

N#Cc1ccc(NC(=O)COc2cccc(Cl)c2)cc1
inactive: dose: 37.5 mg/kg/injection, schedule: Q01DX001 (ip), vehicle: saline with Tween-80 95 % of control | dose: 150.0 mg/kg/injection, schedule: Q01DX001 (ip), vehicle: saline with Tween-80 92 % of control

C=CCN(CC=C)/N=N\c1nc[nH]c1C(=O)OC
inactive: dose: 100.0 mg/kg/injection, schedule: Q01DX001 (ip), vehicle: saline with Tween-80 100 % of control | [4] 109 % of control | [14] 98 % of control | dose: 200.0 mg/kg/injection, schedule: Q01DX001 (ip), vehicle: saline with Tween-80 102 % of control | [15] 95 % of control | [16] 98 % of control | dose: 400.0 mg/kg/injection, schedule: Q01DX001 (ip), vehicle: saline with Tween-80 98 % of control | [17] 93 % of control | [18] 96 % of control

Cc1cc(CCNC=O)c(C)c2c1sc1ccccc12
inactive: [19] 97 % of control | [11] 97 % of control | [12] 92 % of control | [13] 94 % of control

N#CC1OB(O)c2ccccc21 (stereo not drawn)
inactive: [1] 93 % of control | [2] 100 % of control | [3] 93 % of control

CC1(C(=O)O)NCCS1 (stereo not drawn)
inactive: dose: 100.0 mg/kg/injection, schedule: Q01DX001 (ip), vehicle: carboxymethylcellulose (CMC) 95 % of control | dose: 200.0 mg/kg/injection, schedule: Q01DX001 (ip), vehicle: carboxymethylcellulose (CMC) 90 % of control | dose: 400.0 mg/kg/injection, schedule: Q01DX001 (ip), vehicle: carboxymethylcellulose (CMC) 90 % of control

[N-]=[N+]=Nc1nc(Cl)nc2c1ncn2Cc1ccccc1
inactive: [5] 97 % of control

COCCCN=C(N)N
inactive: dose: 50.0 mg/kg/injection, schedule: Q04DX003 (ip), vehicle: saline 98 % of control | [1] 104 % of control | [2] 104 % of control

Oc1ccc(-c2cc(O)c(-c3ccc(O)cc3)cc2O)cc1
inactive: dose: 100.0 mg/kg/injection, schedule: Q01DX009 (ip), vehicle: saline 95 % of control

N#Cc1cccc(N)c1
inactive: [11] 109 % of control | [1] 100 % of control | [2] 94 % of control | [13] 88 % of control | [3] 93 % of control

O=C1CCCCCCCCCCC1Br (stereo not drawn)
inactive: [4] 110 % of control | [14] 92 % of control | [15] 95 % of control | [16] 87 % of control | [17] 87 % of control | [18] 92 % of control

O=C(CCCN1CC=C(N2CCc3ccccc32)CC1)c1ccc(F)cc1
inactive: [14] 102 % of control | [16] 102 % of control

Clc1ccc(/C=C/c2ccc3ccccc3n2)cc1
inactive: dose: 75.0 mg/kg/injection, schedule: Q01DX Z (ip), vehicle: carboxymethylcellulose (CMC) 96 % of control | dose: 113.0 mg/kg/injection, schedule: Q01DX Z (ip), vehicle: carboxymethylcellulose (CMC) 90 % of control | dose: 170.0 mg/kg/injection, schedule: Q01DX Z (ip), vehicle: carboxymethylcellulose (CMC) 88 % of control | dose: 255.0 mg/kg/injection, schedule: Q01DX Z (ip), vehicle: carboxymethylcellulose (CMC) 88 % of control

CC1CC[N+]2(CC(=O)c3ccc(Br)cc3)CCCC12 (stereo not drawn)
inactive: dose: 12.5 mg/kg/injection, schedule: Q01DX001 (ip), vehicle: saline 101 % of control | dose: 25.0 mg/kg/injection, schedule: Q01DX001 (ip), vehicle: saline 104 % of control | [19] 98 % of control

CC(=O)N(CCC#N)CCC#N
inactive: [1] 95 % of control | [2] 96 % of control | [3] 93 % of control

Source: PubChem BioAssay AID248 (DTP/NCI, 2004)
